Data taken from PubChem BioAssay AID1033 (Sanford-Burnham Center for Chemical Genomics, 2008).
The source made the active and inactive calls. No rule for the calls is given here.

Target: Chaperone protein DnaK (Escherichia coli (strain K12)) (UniProt P0A6Y8)
Assay: E. coli DnaK SBD ligand binding – biophysical, NMR, chaperone (AID 1033)
Details: Purified DnaK SBD

Chain of Chaperone protein DnaK (Escherichia coli (strain K12)) (P0A6Y8 whole entry, looked up): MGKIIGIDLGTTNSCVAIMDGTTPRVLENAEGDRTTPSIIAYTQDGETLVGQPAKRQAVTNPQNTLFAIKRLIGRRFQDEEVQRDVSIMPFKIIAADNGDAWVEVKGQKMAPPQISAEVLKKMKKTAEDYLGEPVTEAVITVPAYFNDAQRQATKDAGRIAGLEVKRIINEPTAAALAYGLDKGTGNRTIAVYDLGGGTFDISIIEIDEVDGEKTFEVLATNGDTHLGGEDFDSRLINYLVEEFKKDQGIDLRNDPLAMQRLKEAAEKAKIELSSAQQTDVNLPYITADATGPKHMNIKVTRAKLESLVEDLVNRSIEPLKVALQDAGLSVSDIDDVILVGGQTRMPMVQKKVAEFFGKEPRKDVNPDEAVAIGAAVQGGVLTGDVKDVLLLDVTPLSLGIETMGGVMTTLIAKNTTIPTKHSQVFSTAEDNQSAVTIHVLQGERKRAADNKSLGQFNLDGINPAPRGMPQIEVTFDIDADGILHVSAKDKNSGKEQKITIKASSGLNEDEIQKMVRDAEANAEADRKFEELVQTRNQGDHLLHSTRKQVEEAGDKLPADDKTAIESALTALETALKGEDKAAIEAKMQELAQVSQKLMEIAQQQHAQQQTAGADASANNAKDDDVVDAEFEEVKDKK

SMILES	Kd
COc1cccc(N2CCN(C(=O)c3cccnc3)CC2)c1	> 4 mM (inactive)
CCOC(=O)c1ccc2c(c1)nnn2C	> 4 mM (inactive)
Cc1occc(=O)c1O	> 4 mM (inactive)
CC1=C2[C@H]3OC(=O)[C@@H](C)[C@@H]3CC[C@@]2(C)C=CC1=O	> 4 mM (inactive)
NC(=O)C1CCN(C(=S)Nc2ccccc2)CC1	> 4 mM (inactive)
Cc1cc(C(=O)NCc2cccs2)c(C)o1	> 4 mM (inactive)
COC(=O)C1CCc2ccccc2N1 (configuration not stated)	> 4 mM (inactive)
COc1cc([C@@H]2c3cc4c(cc3[C@H](O)[C@H]3COC(=O)[C@H]23)OCO4)cc(OC)c1OC	> 4 mM (inactive)
O=C1CC(=O)N(c2ccccc2)C(=O)N1	> 4 mM (inactive)
CC(=O)Nc1c(Cl)cnn(-c2ccccc2)c1=O	> 4 mM (inactive)
Cc1c(O)c(O)cc2c1CC=C1[C@@]2(C)CC[C@@]2(C)C3C[C@](C)(C(=O)O)CC[C@]3(C)CC[C@]12C (some centres not stated)	> 4 mM (inactive)
O=C1CNCc2[nH]c3ccccc3c2N1c1ccccc1	> 4 mM (inactive)
CCNC(CC(=O)Nc1ccc(O)cc1)C(=O)O (configuration not stated)	> 4 mM (inactive)
CSc1nsc(SCc2cnc(C)nc2N)n1	> 4 mM (inactive)
CC(=O)Oc1c(C)c(C)c2c(c1C)CCC(C)(CCCC(C)CCCC(C)CCCC(C)C)O2 (configuration not stated)	> 4 mM (inactive)
O=[N+]([O-])c1cccc2c1nnn2C(CO)OCCO (configuration not stated)	> 4 mM (inactive)
CCOC(=O)c1ccc(Oc2ccc(C)nn2)cc1	> 4 mM (inactive)
Cc1cc(=O)[nH]c(N)n1	> 4 mM (inactive)
Cc1ccc2cc(C(=O)O)ccc2n1	> 4 mM (inactive)
O=C(O)CS(=O)(=O)c1ccccc1[N+](=O)[O-]	> 4 mM (inactive)
CN1CCN(c2ccc(N)cc2)CC1	> 4 mM (inactive)
CC1(C)CC2(CCO1)NCCN1C(=O)CSC12 (configuration not stated)	> 4 mM (inactive)
NC(Cn1ccc(=O)c(O)c1)C(=O)O (configuration not stated)	> 4 mM (inactive)
NC(=O)Cc1nc2ccccc2[nH]1	> 4 mM (inactive)

SMILES	Kd
O=C1CSC(=O)N1CN1CCCC1	> 4 mM (inactive)
Cc1ccc(SCc2nc(-c3cccnc3)no2)cc1	> 4 mM (inactive)
O=C(Nc1ccccc1)c1cnc2n(c1=O)CCS2	> 4 mM (inactive)
COc1ccc(-c2cc(=O)c3c(OC(C)=O)cc(OC(C)=O)cc3o2)cc1	> 4 mM (inactive)
COc1ccc(C(=O)/C=C2\NC(=S)NC2=O)cc1	> 4 mM (inactive)
Cn1ncc(C(=O)O)c1-c1ccccc1	> 4 mM (inactive)
Cc1nc(-c2ccc(NS(C)(=O)=O)cc2)cs1	> 4 mM (inactive)
Cc1[nH]c2ccccc2c1Cc1n[nH]c(=S)n1C	> 4 mM (inactive)
COc1ccc2cc1Oc1ccc(cc1)C[C@H]1c3cc(c(OC)cc3CCN1C)Oc1c(OC)c(OC)cc3c1[C@H](C2)N(C)CC3	> 4 mM (inactive)
O=C(c1ccccc1)N1CCNCC1	> 4 mM (inactive)
Nc1ccccc1-n1cccn1	> 4 mM (inactive)
NC1CS(=O)(=O)CC1O (configuration not stated)	> 4 mM (inactive)
Nc1ccncc1	> 4 mM (inactive)
CC1(C)C=CC(=O)[C@@]2(C)C1CC(=O)[C@]1(C)C2CC[C@@]2(C)[C@H](c3ccoc3)OC(=O)C3OC321 (some centres not stated)	> 4 mM (inactive)
Cc1nnc(SCC(=O)Nc2ccccc2)[nH]c1=O	> 4 mM (inactive)
NCc1ccc2c(c1)CCO2	> 4 mM (inactive)
O=C1CSC(c2ccc3c(c2)OCO3)N1 (configuration not stated)	> 4 mM (inactive)
CC1=CC2C(C(C)C)CCC(C)(O)C2CC1 (configuration not stated)	> 4 mM (inactive)
Cc1nc2cc(NC(=O)Nc3nccs3)ccc2n1C	> 4 mM (inactive)
NC(=O)Cn1cnc2c(cnn2-c2ccccc2)c1=O	> 4 mM (inactive)
Cc1n[nH]c(C)c1-c1ccccc1C(=O)O	> 4 mM (inactive)
COc1ccc2c(c1)O[C@H]1c3ccc(OC)cc3OC[C@@H]21	> 4 mM (inactive)
O=c1ccc2nc3ccccc3c(=O)n2[nH]1	> 4 mM (inactive)
